Test results from PMC12454493, “Insight on novel sulfamoylphenyl pyrazole derivatives as anticancer carbonic anhydrase inhibitors” (Molecular Diversity, 2024).
Where “and” joins values, the source holds several entries; their conditions need not be identical. Identical values can stand only once.

Legend:
[1] = test system: NCI-H460; test: NCI-60 one-dose SRB screen (Non-Small Cell Lung Cancer); type: cell-based; conditions: Homo sapiens, single dose 10 µM, 48 h, read-out: Growth inhibition percent (GI %)
[2] = test system: A549/ATCC; test: as above; type: cell-based; conditions: Homo sapiens, single dose 10 µM, 48 h, read-out: Growth inhibition percent (GI %)
[3] = test system: NCI-H23; test: as above; type: cell-based; conditions: Homo sapiens, single dose 10 µM, 48 h, read-out: Growth inhibition percent (GI %)
[4] = test system: HOP-92; test: as above; type: cell-based; conditions: Homo sapiens, single dose 10 µM, 48 h, read-out: Growth inhibition percent (GI %)
[5] = test system: NCI-H226; test: as above; type: cell-based; conditions: Homo sapiens, single dose 10 µM, 48 h, read-out: Growth inhibition percent (GI %)
[6] = test system: NCI-H522; test: as above; type: cell-based; conditions: Homo sapiens, single dose 10 µM, 48 h, read-out: Growth inhibition percent (GI %)
[7] = test system: NCI-H322M; test: as above; type: cell-based; conditions: Homo sapiens, single dose 10 µM, 48 h, read-out: Growth inhibition percent (GI %)
[8] = test system: HOP-62; test: as above; type: cell-based; conditions: Homo sapiens, single dose 10 µM, 48 h, read-out: Growth inhibition percent (GI %)
[9] = test system: EKVX; test: as above; type: cell-based; conditions: Homo sapiens, single dose 10 µM, 48 h, read-out: Growth inhibition percent (GI %)
[10] = test system: MCF-7; test: NCI-60 one-dose SRB screen (Breast Cancer); type: cell-based; conditions: Homo sapiens, MCF7, single dose 10 µM, 48 h, read-out: Growth inhibition percent (GI %)
[11] = test system: HS 578T; test: NCI-60 one-dose SRB screen (Breast Cancer); type: cell-based; conditions: Homo sapiens, single dose 10 µM, 48 h, read-out: Growth inhibition percent (GI %)
[12] = test system: MDA-MB-231/ATCC; test: NCI-60 one-dose SRB screen (Breast Cancer); type: cell-based; conditions: Homo sapiens, single dose 10 µM, 48 h, read-out: Growth inhibition percent (GI %)
[13] = test system: BT-549; test: NCI-60 one-dose SRB screen (Breast Cancer); type: cell-based; conditions: Homo sapiens, single dose 10 µM, 48 h, read-out: Growth inhibition percent (GI %)
[14] = test system: T-47D; test: NCI-60 one-dose SRB screen (Breast Cancer); type: cell-based; conditions: Homo sapiens, T47D, single dose 10 µM, 48 h, read-out: Growth inhibition percent (GI %)
[15] = test system: MDA-MB-468; test: NCI-60 one-dose SRB screen (Breast Cancer); type: cell-based; conditions: Homo sapiens, single dose 10 µM, 48 h, read-out: Growth inhibition percent (GI %)
[16] = test system: U251; test: NCI-60 one-dose SRB screen (CNS Cancer); type: cell-based; conditions: Homo sapiens, U-251, single dose 10 µM, 48 h, read-out: Growth inhibition percent (GI %)
[17] = test system: SNB-75; test: NCI-60 one-dose SRB screen (CNS Cancer); type: cell-based; conditions: Homo sapiens, single dose 10 µM, 48 h, read-out: Growth inhibition percent (GI %)
[18] = test system: SNB-19; test: NCI-60 one-dose SRB screen (CNS Cancer); type: cell-based; conditions: Homo sapiens, single dose 10 µM, 48 h, read-out: Growth inhibition percent (GI %)
[19] = test system: SF-539; test: NCI-60 one-dose SRB screen (CNS Cancer); type: cell-based; conditions: Homo sapiens, single dose 10 µM, 48 h, read-out: Growth inhibition percent (GI %)
[20] = test system: SF-295; test: NCI-60 one-dose SRB screen (CNS Cancer); type: cell-based; conditions: Homo sapiens, single dose 10 µM, 48 h, read-out: Growth inhibition percent (GI %)
[21] = test system: SF-268; test: NCI-60 one-dose SRB screen (CNS Cancer); type: cell-based; conditions: Homo sapiens, single dose 10 µM, 48 h, read-out: Growth inhibition percent (GI %)
[22] = test system: UACC-257; test: NCI-60 one-dose SRB screen (Melanoma); type: cell-based; conditions: Homo sapiens, single dose 10 µM, 48 h, read-out: Growth inhibition percent (GI %)
[23] = test system: UACC-62; test: NCI-60 one-dose SRB screen (Melanoma); type: cell-based; conditions: Homo sapiens, single dose 10 µM, 48 h, read-out: Growth inhibition percent (GI %)
[24] = test system: SK-MEL-2; test: NCI-60 one-dose SRB screen (Melanoma); type: cell-based; conditions: Homo sapiens, single dose 10 µM, 48 h, read-out: Growth inhibition percent (GI %)
[25] = test system: SK-MEL-5; test: NCI-60 one-dose SRB screen (Melanoma); type: cell-based; conditions: Homo sapiens, single dose 10 µM, 48 h, read-out: Growth inhibition percent (GI %)
[26] = test system: MDA-MB-435; test: NCI-60 one-dose SRB screen (Melanoma); type: cell-based; conditions: Homo sapiens, single dose 10 µM, 48 h, read-out: Growth inhibition percent (GI %)
[27] = test system: LOX IMVI; test: NCI-60 one-dose SRB screen (Melanoma); type: cell-based; conditions: Homo sapiens, single dose 10 µM, 48 h, read-out: Growth inhibition percent (GI %)
[28] = test system: M14; test: NCI-60 one-dose SRB screen (Melanoma); type: cell-based; conditions: Homo sapiens, single dose 10 µM, 48 h, read-out: Growth inhibition percent (GI %)
[29] = test system: MALME-3M; test: NCI-60 one-dose SRB screen (Melanoma); type: cell-based; conditions: Homo sapiens, single dose 10 µM, 48 h, read-out: Growth inhibition percent (GI %)
[30] = test system: SK-MEL-28; test: NCI-60 one-dose SRB screen (Melanoma); type: cell-based; conditions: Homo sapiens, single dose 10 µM, 48 h, read-out: Growth inhibition percent (GI %)
[31] = test system: CCRF-CEM; test: NCI-60 one-dose SRB screen (Leukemia); type: cell-based; conditions: Homo sapiens, single dose 10 µM, 48 h, read-out: Growth inhibition percent (GI %)
[32] = test system: ACHN; test: NCI-60 one-dose SRB screen (Renal Cancer); type: cell-based; conditions: Homo sapiens, single dose 10 µM, 48 h, read-out: Growth inhibition percent (GI %)
[33] = test system: 786-0; test: NCI-60 one-dose SRB screen (Renal Cancer); type: cell-based; conditions: Homo sapiens, single dose 10 µM, 48 h, read-out: Growth inhibition percent (GI %)
[34] = test system: CAKI-1; test: NCI-60 one-dose SRB screen (Renal Cancer); type: cell-based; conditions: Homo sapiens, single dose 10 µM, 48 h, read-out: Growth inhibition percent (GI %)
[35] = test system: RXF 393; test: NCI-60 one-dose SRB screen (Renal Cancer); type: cell-based; conditions: Homo sapiens, single dose 10 µM, 48 h, read-out: Growth inhibition percent (GI %)
[36] = test system: TK-10; test: NCI-60 one-dose SRB screen (Renal Cancer); type: cell-based; conditions: Homo sapiens, single dose 10 µM, 48 h, read-out: Growth inhibition percent (GI %)
[37] = test system: UO-31; test: NCI-60 one-dose SRB screen (Renal Cancer); type: cell-based; conditions: Homo sapiens, single dose 10 µM, 48 h, read-out: Growth inhibition percent (GI %)
[38] = test system: A498; test: NCI-60 one-dose SRB screen (Renal Cancer); type: cell-based; conditions: Homo sapiens, single dose 10 µM, 48 h, read-out: Growth inhibition percent (GI %)
[39] = test system: SN12C; test: NCI-60 one-dose SRB screen (Renal Cancer); type: cell-based; conditions: Homo sapiens, single dose 10 µM, 48 h, read-out: Growth inhibition percent (GI %)
[40] = test system: HCT-116; test: NCI-60 one-dose SRB screen (Colon Cancer); type: cell-based; conditions: Homo sapiens, single dose 10 µM, 48 h, read-out: Growth inhibition percent (GI %)
[41] = test system: KM12; test: NCI-60 one-dose SRB screen (Colon Cancer); type: cell-based; conditions: Homo sapiens, single dose 10 µM, 48 h, read-out: Growth inhibition percent (GI %)
[42] = test system: HCT-15; test: NCI-60 one-dose SRB screen (Colon Cancer); type: cell-based; conditions: Homo sapiens, single dose 10 µM, 48 h, read-out: Growth inhibition percent (GI %)
[43] = test system: HCC-2998; test: NCI-60 one-dose SRB screen (Colon Cancer); type: cell-based; conditions: Homo sapiens, single dose 10 µM, 48 h, read-out: Growth inhibition percent (GI %)
[44] = test system: SW-620; test: NCI-60 one-dose SRB screen (Colon Cancer); type: cell-based; conditions: Homo sapiens, single dose 10 µM, 48 h, read-out: Growth inhibition percent (GI %)
[45] = test system: HT29; test: NCI-60 one-dose SRB screen (Colon Cancer); type: cell-based; conditions: Homo sapiens, HT-29, single dose 10 µM, 48 h, read-out: Growth inhibition percent (GI %)
[46] = test system: COLO 205; test: NCI-60 one-dose SRB screen (Colon Cancer); type: cell-based; conditions: Homo sapiens, single dose 10 µM, 48 h, read-out: Growth inhibition percent (GI %)
[47] = molecular target: hCA IX (Homo sapiens, UniProt Q16790); test: CA inhibitory activity, spectrophotometric p-NPA assay; type: biochemical; conditions: for IC50: p-NPA substrate, pH 7.5, 25 °C, triplicate, read-out: IC50 (µM) ± SD hCA IX
Protocol: The software used to calculate CA IC50 along with statistical analysis of the results is GraphPad Prism 9.00. Results were estimated by using one-way ANOVA and the Bonferroni’s multiple comparisons posthoc test was performed (P < 0.05) [46]
Carbonic anhydrase inhibitory activity:
The spectrophotometric assay was conducted in HEPES-Tris buffer, NaCl of pH 7.5 (20mM) at 25◦C. Each inhibitory well-consisted of 50 μL of assay buffer solution, 20 μL of hCA enzyme solution (20 ng/μL in Assay Buffer), and 50 μL of test compound in HPLC grade DMSO (maintain 10% of the final concentration). The mixture solution was
Substrate p-nitrophenyl acetate (p-NPA) (0.7mM) was prepared in HPLC grade methanol and the reaction was started by adding 20 μL to a well in a 96-well-plate. The amount of product formed was measured for 30 min continuously at 1 min intervals at 400 nm in a 96-well-plate using xMARK microplate spectrophotometer, Bio-Rad (USA). The activity of the controlled compound was taken as 100%. All experiments were carried out in triplicates of each used concentration, and results are represented as a

Compound: CCOC(=O)c1ccc(NC(=O)COC(=O)c2cn(-c3ccc(S(N)(=O)=O)cc3)nc2-c2ccc(Br)cc2)cc1 [Compound 5d, 2-[(4-(Ethoxycarbonyl)phenyl)amino]-2-oxoethyl 3-(4-bromophenyl)-1-(4-sulfamoylphenyl)-1H-pyrazole-4-carboxylate]
- inhibition at 10 µM [1]: 65.7%
- inhibition at 10 µM [2]: 62.9%
- inhibition at 10 µM [3]: 49.4%
- inhibition at 10 µM [4]: 72.1%
- inhibition at 10 µM [5]: 48.3%
- inhibition at 10 µM [6]: 64.9%
- inhibition at 10 µM [7]: 21.2%
- inhibition at 10 µM [8]: 26.2%
- inhibition at 10 µM [9]: 62.5%
- inhibition at 10 µM [10]: 91%
- inhibition at 10 µM [11]: 51.3%
- inhibition at 10 µM [12]: 43.7%
- inhibition at 10 µM [13]: 36.6%
- inhibition at 10 µM [14]: 60.2%
- inhibition at 10 µM [15]: 67.6%
- inhibition at 10 µM [16]: 57.9%
- inhibition at 10 µM [17]: 74.9%
- inhibition at 10 µM [18]: 57.9%
- inhibition at 10 µM [19]: 63.3%
- inhibition at 10 µM [20]: 57.5%
- inhibition at 10 µM [21]: 64.1%
- inhibition at 10 µM [22]: 38.3%
- inhibition at 10 µM [23]: 58.7%
- inhibition at 10 µM [24]: 49.1%
- inhibition at 10 µM [25]: 36.3%
- inhibition at 10 µM [26]: 61.2%
- inhibition at 10 µM [27]: 72.9%
- inhibition at 10 µM [28]: 73.7%
- inhibition at 10 µM [29]: 46.1%
- inhibition at 10 µM [30]: 55.6%
- inhibition at 10 µM [31]: 85.8%
- inhibition at 10 µM [32]: 66%
- inhibition at 10 µM [33]: 74.9%
- inhibition at 10 µM [34]: 81.9%
- inhibition at 10 µM [35]: 82.8%
- inhibition at 10 µM [36]: 18.4%
- inhibition at 10 µM [37]: 58.9%
- inhibition at 10 µM [38]: 20.6%
- inhibition at 10 µM [39]: 47.1%
- inhibition at 10 µM [40]: 73.6%
- inhibition at 10 µM [41]: 76.7%
- inhibition at 10 µM [42]: 76.4%
- inhibition at 10 µM [43]: 54.3%
- inhibition at 10 µM [44]: 50.6%
- inhibition at 10 µM [45]: 88.3%
- inhibition at 10 µM [46]: 61.2%
- IC50 [47]: 0.631 ± 0.029 µM

Compound: COc1ccc(-c2nn(-c3ccc(S(N)(=O)=O)cc3)cc2C(=O)OCC(=O)Nc2nnc(S(N)(=O)=O)s2)cc1 [Compound 6c, 2-Oxo-2-[(5-sulfamoyl-1,3,4-thiadiazol-2-yl)amino] ethyl 3-(4-methoxyphenyl)-1-(4-sulfamoylphenyl)-1H-pyrazole-4-carboxylate]
- inhibition at 10 µM [1]: < 5%
- inhibition at 10 µM [2]: < 5%
- inhibition at 10 µM [3]: < 5%
- inhibition at 10 µM [4]: 27.4%
- inhibition at 10 µM [5]: 8.69%
- inhibition at 10 µM [6]: 5.91%
- inhibition at 10 µM [7]: < 5%
- inhibition at 10 µM [8]: < 5%
- inhibition at 10 µM [9]: 11.2%
- inhibition at 10 µM [10]: 15.8%
- inhibition at 10 µM [11]: 12.8%
- inhibition at 10 µM [12]: < 5%
- inhibition at 10 µM [13]: < 5%
- inhibition at 10 µM [14]: < 5%
- inhibition at 10 µM [15]: 7.76%
- inhibition at 10 µM [16]: < 5%
- inhibition at 10 µM [17]: 13.4%
- inhibition at 10 µM [18]: < 5%
- inhibition at 10 µM [19]: < 5%
- inhibition at 10 µM [20]: < 5%
- inhibition at 10 µM [21]: < 5%
- inhibition at 10 µM [22]: < 5%
- inhibition at 10 µM [23]: 9.09%
- inhibition at 10 µM [24]: < 5%
- inhibition at 10 µM [25]: < 5%
- inhibition at 10 µM [26]: < 5%
- inhibition at 10 µM [27]: 8.56%
- inhibition at 10 µM [28]: < 5%
- inhibition at 10 µM [29]: 5.67%
- inhibition at 10 µM [30]: < 5%
- inhibition at 10 µM [31]: < 5%
- inhibition at 10 µM [32]: < 5%
- inhibition at 10 µM [33]: < 5%
- inhibition at 10 µM [34]: 21.5%
- inhibition at 10 µM [35]: < 5%
- inhibition at 10 µM [36]: < 5%
- inhibition at 10 µM [37]: 14.9%
- inhibition at 10 µM [38]: 7.75%
- inhibition at 10 µM [39]: < 5%
- inhibition at 10 µM [40]: < 5%
- inhibition at 10 µM [41]: < 5%
- inhibition at 10 µM [42]: < 5%
- inhibition at 10 µM [43]: < 5%
- inhibition at 10 µM [44]: < 5%
- inhibition at 10 µM [45]: < 5%
- inhibition at 10 µM [46]: < 5%
- Ki [47]: 73 nM
- IC50 [47]: 0.07 µM and 0.073 µM
